Results reported in ChEMBL document CHEMBL5131399, “Broadening antifungal spectrum and improving metabolic stablity based on a scaffold strategy: Design, synthesis, and evaluation of novel 4-phenyl-4,5-dihydrooxazole derivatives as potent fungistatic and fungicidal reagents” (Eur J Med Chem, 2022).
pIC50: −log10 of the molar value. In brackets after ≈: the same amount, converted by molar mass.

How the values were obtained:
[1] = tested on: Candida albicans; assay: Antifungal activity against Candida albicans ATCC SC5314 assessed as fungal growth inhibition by NCCLS protocol based method; assay type: functional
[2] = tested on: Candida albicans; assay: Antifungal activity against Candida albicans CPCC400616 assessed as fungal growth inhibition by NCCLS protocol based method; assay type: functional
[3] = tested on: Candida tropicalis; assay: Antifungal activity against Candida tropicalis CGMCC 2.3739 assessed as fungal growth inhibition by NCCLS protocol based method; assay type: functional
[4] = tested on: Cryptococcus neoformans; assay: Antifungal activity against Cryptococcus neoformans CGMCC 2.3161 assessed as fungal growth inhibition by NCCLS protocol based method; assay type: functional
[5] = tested on: Candida parapsilosis; assay: Antifungal activity against Candida parapsilosis GIM2.190 assessed as fungal growth inhibition by NCCLS protocol based method; assay type: functional; details: Lodderomyces parapsilosis
[6] = tested on: Nakaseomyces glabratus; assay: Antifungal activity against Candida glabrata clinical isolate assessed as fungal growth inhibition by NCCLS protocol based method; assay type: functional
[7] = tested on: Pichia kudriavzevii; assay: Antifungal activity against Candida krusei GIM2.1 assessed as fungal growth inhibition by NCCLS protocol based method; assay type: functional
[8] = tested on: Aspergillus fumigatus; assay: Antifungal activity against Aspergillus fumigatus CGMCC3.7795 assessed as fungal growth inhibition by NCCLS protocol based method; assay type: functional
[9] = tested on: Candida albicans; assay: Antifungal activity against FLC-resistant Candida albicans CaR assessed as fungal growth inhibition by NCCLS protocol based method; assay type: functional
[10] = tested on: Candida albicans; assay: Antifungal activity against FLC-resistant Candida albicans 901 assessed as fungal growth inhibition by NCCLS protocol based method; assay type: functional
[11] = tested on: Candida albicans; assay: Antifungal activity against FLC-resistant Candida albicans 904 assessed as fungal growth inhibition by NCCLS protocol based method; assay type: functional
[12] = tested on: Candida albicans; assay: Antifungal activity against FLC-resistant Candida albicans 632 assessed as fungal growth inhibition by NCCLS protocol based method; assay type: functional
[13] = tested on: Candida albicans; assay: Antifungal activity against FLC-resistant Candida albicans 100 assessed as fungal growth inhibition by NCCLS protocol based method; assay type: functional
[14] = tested on: Candida albicans; assay: Antifungal activity against FLC-resistant Candida albicans 103 assessed as fungal growth inhibition by NCCLS protocol based method; assay type: functional
[15] = tested on: Candida albicans; assay: Antifungal activity against FLC-resistant Candida albicans 311 assessed as fungal growth inhibition by NCCLS protocol based method; assay type: functional
[16] = tested on: Candida albicans; assay: Antibiofilm activity against FLC-resistant Candida albicans CPCC400616 assessed as assessed as inhibition of biofilm formation measured at 3 hrs by XTT reduction assay; assay type: functional
[17] = tested on: Candida albicans; assay: Antibiofilm activity against FLC-resistant Candida albicans CPCC400616 assessed as assessed as inhibition of biofilm formation measured at 6 hrs by XTT reduction assay; assay type: functional
[18] = tested on: Candida albicans; assay: Antibiofilm activity against FLC-resistant Candida albicans CPCC400616 assessed as assessed as inhibition of biofilm formation measured at 18 hrs by XTT reduction assay; assay type: functional
[19] = tested on: Candida albicans; assay: Antibiofilm activity against FLC-resistant Candida albicans CPCC400616 assessed as assessed as inhibition of biofilm formation measured at 24 hrs by XTT reduction assay; assay type: functional
[20] = Cytotoxicity against human HEK293T cells assessed as inhibition of cell growth incubated for 4 hrs by MTT assay; assay type: toxicity, cell-based, HEK-293T
[21] = tested on: A549; assay: Cytotoxicity against human A549 cells assessed as inhibition of cell growth incubated for 4 hrs by MTT assay; assay type: functional, cell-based; details: A549, 4 h
[22] = tested on: MCF7; assay: Cytotoxicity against human MCF7 cells assessed as inhibition of cell growth incubated for 4 hrs by MTT assay; assay type: functional, cell-based; details: MCF7, 4 h
[23] = tested on: HepG2; assay: Cytotoxicity against human HepG2 cells assessed as inhibition of cell growth incubated for 4 hrs by MTT assay; assay type: functional, cell-based; details: HepG2, 4 h

Structure (SMILES)	MIC [1]	MIC [2]	MIC [3]	MIC [4]	MIC [5]	MIC [6]	MIC [7]	MIC [8]	also measured
Fc1cccc(C2(Cn3ccnc3)COC(c3ccc(-c4ccccc4)s3)=N2)c1 (stereo not given)	> 64 µg/mL	> 64 µg/mL	8 µg/mL (≈ 19.8 µM)	> 64 µg/mL	> 64 µg/mL	> 64 µg/mL	> 64 µg/mL	> 64 µg/mL	–
Cc1cccc(-c2ccc(C3=NC(Cn4ccnc4)(c4ccc(F)cc4)CO3)s2)c1 (stereo not given)	0.5 µg/mL (≈ 1.2 µM)	0.25 µg/mL (≈ 0.599 µM)	4 µg/mL (≈ 9.58 µM)	16 µg/mL (≈ 38.3 µM)	16 µg/mL (≈ 38.3 µM)	> 64 µg/mL	> 64 µg/mL	32 µg/mL (≈ 76.6 µM)	–
COc1ccc(-c2ccc(C3=NC(Cn4ccnc4)(c4ccc(F)cc4)CO3)s2)cc1 (stereo not given)	> 64 µg/mL	> 64 µg/mL	> 64 µg/mL	> 64 µg/mL	> 64 µg/mL	> 64 µg/mL	> 64 µg/mL	> 64 µg/mL	–
N#Cc1ccc(-c2ccc(C3=NC(Cn4ccnc4)(c4ccc(F)cc4)CO3)s2)cc1 (stereo not given)	0.125 µg/mL (≈ 0.292 µM)	1 µg/mL (≈ 2.33 µM)	16 µg/mL (≈ 37.3 µM)	> 64 µg/mL	> 64 µg/mL	> 64 µg/mL	> 64 µg/mL	16 µg/mL (≈ 37.3 µM)	–
Fc1ccc(C2(Cn3ccnc3)COC(c3ccc(-c4ccc(Cl)cc4)s3)=N2)cc1 (stereo not given)	8 µg/mL (≈ 18.3 µM)	2 µg/mL (≈ 4.57 µM)	4 µg/mL (≈ 9.13 µM)	> 64 µg/mL	> 64 µg/mL	> 64 µg/mL	8 µg/mL (≈ 18.3 µM)	8 µg/mL (≈ 18.3 µM)	–
Fc1ccccc1C1(Cn2ccnc2)COC(c2ccc(-c3ccccc3)s2)=N1 (stereo not given)	0.5 µg/mL (≈ 1.24 µM)	0.125 µg/mL (≈ 0.31 µM)	0.125 µg/mL (≈ 0.31 µM)	0.5 µg/mL (≈ 1.24 µM)	0.25 µg/mL (≈ 0.62 µM)	0.25 µg/mL (≈ 0.62 µM)	1 µg/mL (≈ 2.48 µM)	8 µg/mL (≈ 19.8 µM)	MIC [9]: 0.125 µg/mL (≈ 0.31 µM); MIC [10]: 1 µg/mL (≈ 2.48 µM); MIC [11]: 1 µg/mL (≈ 2.48 µM); MIC [12]: 1 µg/mL (≈ 2.48 µM); MIC [13]: 0.125 µg/mL (≈ 0.31 µM); MIC [14]: 0.25 µg/mL (≈ 0.62 µM); MIC [15]: 0.25 µg/mL (≈ 0.62 µM)
Cc1ccc(C2(Cn3ccnc3)COC(c3ccc(-c4ccccc4)s3)=N2)cc1 (stereo not given)	0.125 µg/mL (≈ 0.313 µM)	0.125 µg/mL (≈ 0.313 µM)	8 µg/mL (≈ 20 µM)	0.25 µg/mL (≈ 0.626 µM)	1 µg/mL (≈ 2.5 µM)	> 64 µg/mL	> 64 µg/mL	16 µg/mL (≈ 40 µM)	MIC [9]: 2 µg/mL (≈ 5.01 µM); MIC [10]: 2 µg/mL (≈ 5.01 µM); MIC [11]: 4 µg/mL (≈ 10 µM); MIC [12]: 16 µg/mL (≈ 40 µM); MIC [13]: 0.5 µg/mL (≈ 1.25 µM); MIC [14]: 4 µg/mL (≈ 10 µM); MIC [15]: 8 µg/mL (≈ 20 µM)
CCC(C)n1ncn(-c2ccc(N3CCN(c4ccc(OCC5COC(Cn6cncn6)(c6ccc(Cl)cc6Cl)O5)cc4)CC3)cc2)c1=O (stereo not given) [ITRACONAZOLE]	0.03 µg/mL (≈ 0.0425 µM)	0.03 µg/mL (≈ 0.0425 µM)	0.03 µg/mL (≈ 0.0425 µM)	0.125 µg/mL (≈ 0.177 µM)	0.125 µg/mL (≈ 0.177 µM)	0.125 µg/mL (≈ 0.177 µM)	0.125 µg/mL (≈ 0.177 µM)	0.125 µg/mL (≈ 0.177 µM)	MIC50 [16]: 16 µg/mL (≈ 22.7 µM); MIC50 [17]: 32 µg/mL (≈ 45.3 µM); MIC50 [18]: > 64 µg/mL; MIC50 [19]: > 64 µg/mL; IC50 at 4 h [20]: > 50 µM; pIC50 [21]: < 4.30; pIC50 [22]: < 4.30; pIC50 [23]: < 4.30
CCOc1ccc(-c2ccc(C3=NC(Cn4ccnc4)(c4ccc(F)cc4)CO3)s2)cc1 (stereo not given)	0.5 µg/mL (≈ 1.12 µM)	2 µg/mL (≈ 4.47 µM)	1 µg/mL (≈ 2.23 µM)	> 64 µg/mL	> 64 µg/mL	32 µg/mL (≈ 71.5 µM)	> 64 µg/mL	8 µg/mL (≈ 17.9 µM)	–
CC(C)c1ccccc1-c1ccc(C2=NC(Cn3ccnc3)(c3ccc(F)cc3)CO2)s1 (stereo not given)	> 64 µg/mL	> 64 µg/mL	> 64 µg/mL	> 64 µg/mL	> 64 µg/mL	> 64 µg/mL	> 64 µg/mL	> 64 µg/mL	–
Fc1ccc(C2(Cn3ccnc3)COC(c3ccc(-c4ccc(C(F)(F)F)cc4)s3)=N2)cc1 (stereo not given)	> 64 µg/mL	> 64 µg/mL	> 64 µg/mL	> 64 µg/mL	> 64 µg/mL	> 64 µg/mL	> 64 µg/mL	> 64 µg/mL	–
Clc1ccc(C2(Cn3ccnc3)COC(c3ccc(-c4ccccc4)s3)=N2)cc1 (stereo not given)	0.25 µg/mL (≈ 0.595 µM)	0.25 µg/mL (≈ 0.595 µM)	0.125 µg/mL (≈ 0.298 µM)	0.5 µg/mL (≈ 1.19 µM)	2 µg/mL (≈ 4.76 µM)	16 µg/mL (≈ 38.1 µM)	16 µg/mL (≈ 38.1 µM)	8 µg/mL (≈ 19.1 µM)	MIC [9]: 1 µg/mL (≈ 2.38 µM); MIC [10]: 0.5 µg/mL (≈ 1.19 µM); MIC [11]: 2 µg/mL (≈ 4.76 µM); MIC [12]: 1 µg/mL (≈ 2.38 µM); MIC [13]: 4 µg/mL (≈ 9.53 µM); MIC [14]: 4 µg/mL (≈ 9.53 µM); MIC [15]: 4 µg/mL (≈ 9.53 µM)
